Legend:
human sEH = target: T1, human sEH (Homo sapiens, UniProt P34913); assay: Fluorescent; format: biochemical; details: for drop in inhibition compared to compound 6: ratio of IC50 vs compound 6; for reduced inhibition compared to N,N,O-trimethylated oxyoxalamide derivatives: Conclusions, vs trimethylated derivatives (24, 26, 31); for improvement in inhibition in comparison with compound 27: ratio of IC50 vs compound 27
T1 sequence (P34913 1-555): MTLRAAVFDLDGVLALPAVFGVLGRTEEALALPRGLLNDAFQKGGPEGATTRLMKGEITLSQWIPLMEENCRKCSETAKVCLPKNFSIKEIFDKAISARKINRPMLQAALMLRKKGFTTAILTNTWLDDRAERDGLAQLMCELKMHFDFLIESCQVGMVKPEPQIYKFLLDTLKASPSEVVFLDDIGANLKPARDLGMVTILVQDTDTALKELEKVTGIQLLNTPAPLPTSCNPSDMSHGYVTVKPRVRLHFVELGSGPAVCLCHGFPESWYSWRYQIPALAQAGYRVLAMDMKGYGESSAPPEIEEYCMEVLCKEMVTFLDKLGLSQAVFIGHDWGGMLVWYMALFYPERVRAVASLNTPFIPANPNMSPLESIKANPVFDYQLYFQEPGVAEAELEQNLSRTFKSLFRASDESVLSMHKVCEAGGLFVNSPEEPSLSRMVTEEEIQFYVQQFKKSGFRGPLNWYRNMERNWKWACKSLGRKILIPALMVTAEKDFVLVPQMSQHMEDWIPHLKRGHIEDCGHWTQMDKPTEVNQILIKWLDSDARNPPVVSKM

[1] = Water solubility by light scattering; format: physicochemical; details: vs AUDA

O=C(NCCCc1ccccc1)C(=O)NOCc1ccccc1 [Compound 3, N^1-(Benzyloxy)-N^2-(3-phenylpropyl)oxalamide]
inhibition of human sEH, result in words (human sEH): not effective for producing inhibition activity

O=C(NOCc1ccccc1)C(=O)NC12CC3CC(CC(C3)C1)C2 [Compound 4, N^1-(Adamant-1-yl)-N^2-(benzyloxy)oxalamide]
inhibition of human sEH, result in words (human sEH): not effective for producing inhibition activity

O=C(NCC12CC3CC(CC(C3)C1)C2)C(=O)NOCc1ccccc1 [Compound 5, N^1-(Adamant-1-ylmethyl)-N^2-(benzyloxy)oxalamide]
inhibition of human sEH, result in words (human sEH): moderate inhibition

O=C(NOCc1ccccc1)C(=O)NC1C2CC3CC(C2)CC1C3 (stereo not drawn) [Compound 6, N^1-(Adamant-2-yl)-N^2-(benzyloxy)oxalamide]
inhibition potency lower compared to AUDA (human sEH; ratio of IC50 vs AUDA): approximately 15 fold | improvement in inhibition potency compared to compound 5 (human sEH; ratio of IC50 vs compound 5): 16 fold

O=C(NOc1ccccc1)C(=O)NC1C2CC3CC(C2)CC1C3 (stereo not drawn) [Compound 7, N^1-(Adamant-2-yl)-N^2-(phenyloxy)oxalamide]
inhibition of human sEH, result in words (human sEH): no inhibition

O=C(NOCCCc1ccccc1)C(=O)NC1C2CC3CC(C2)CC1C3 (stereo not drawn) [Compound 12, N^1-(Adamant-2-yl)-N^2-(3-phenylpropyloxy)oxalamide]
drop in inhibition compared to compound 6 (human sEH): approximately 10 fold | better inhibition than compound 11 (human sEH; ratio of IC50 vs compound 11): approximately 8 fold

CN(OCc1ccccc1)C(=O)C(=O)NC1C2CC3CC(C2)CC1C3 (stereo not drawn) [Compound 13, N^1-(Adamant-2-yl)-N^2-(benzyloxy)-N^2-methyloxalamide]
drop in inhibition compared to compound 6 (human sEH): approximately 60 fold

O=C(CNC1C2CC3CC(C2)CC1C3)NOCc1ccccc1 (stereo not drawn) [Compound 16, N-(Benzyloxy)-2-(adamant-2-ylamino)acetamide]
inhibition of human sEH, result in words (human sEH): no inhibition

CONC(=O)C(=O)Nc1ccc(CNC(=O)C23CC4CC(CC(C4)C2)C3)cc1 [Compound 18, N-(4-(N^2-Methyloxyoxalamido)benzyl)adamantanecarboxamide]
enhancement in inhibition compared to compound 17 (human sEH; ratio of IC50 vs compound 17): ≥ 3 fold

CC(C)(C)ONC(=O)C(=O)Nc1ccc(CNC(=O)C23CC4CC(CC(C4)C2)C3)cc1 [Compound 19, N-(4-(N^2-t-Butyloxyoxalamido)benzyl)adamantanecarboxamide]
lowered inhibition compared to compound 18 (human sEH; ratio of IC50 vs compound 18): 1.5 fold

CON(C)C(=O)C(=O)Nc1ccc(CNC(=O)C23CC4CC(CC(C4)C2)C3)cc1 [Compound 20, N-(4-(N^2-Methyl-N^2-(methyloxy)oxalamido)benzyl)adamantanecarboxamide]
improved potency compared to O-methyl derivative (18) (human sEH; ratio of IC50 vs compound 18): 1.5 fold

CON(C)C(=O)C(=O)N(C)c1ccc(CNC(=O)C23CC4CC(CC(C4)C2)C3)cc1 [Compound 21, N-(4-(N^1-Methyl-N^2-methyl-N^2-(methyloxy)oxalamido)-benzyl)adamantanecarboxamide]
improved potency compared to O-methyl derivative (18) (human sEH; ratio of IC50 vs compound 18): 1.5 fold

O=C(NOC1CCCCO1)C(=O)Nc1ccc(CNC(=O)C23CC4CC(CC(C4)C2)C3)cc1 (stereo not drawn) [Compound 22, N-(4-(N^2-(Tetrahydro-2H-pyran-2-yloxy)oxalamido)benzyl) adamantanecarboxamide]
inhibition of human sEH, result in words (human sEH): complete loss in inhibition

CONC(=O)C(=O)Nc1ccc(CNC(=O)NC23CC4CC(CC(C4)C2)C3)cc1 [Compound 28, 1-(4-(N^2-Methyloxyoxalamido)benzyl)-3-adamantylurea]
reduced inhibition compared to N,N,O-trimethylated oxyoxalamide derivatives (human sEH): ≤ 10 fold | improvement in inhibition in comparison with compound 27 (human sEH): 2.5 fold

CON(C)C(=O)C(=O)Nc1ccc(CNC(=O)NC23CC4CC(CC(C4)C2)C3)cc1 [Compound 30, 1-(4-(N^2-Methyl-N^2-(methyloxy)oxalamido)benzyl)-3-adamantylurea]
reduced inhibition compared to N,N,O-trimethylated oxyoxalamide derivatives (human sEH): ≤ 10 fold | improvement in inhibition in comparison with compound 27 (human sEH): 3 fold

CON(C)C(=O)C(=O)N(C)c1ccc(CNC(=O)NC23CC4CC(CC(C4)C2)C3)cc1 [Compound 31, 1-(4-(N^1-Methyl-N^2-methyl-N^2-(methyloxy)oxalamido)-benzyl)-3-adamantylurea]
higher solubility in water than AUDA [1]: 10 fold | improvement in inhibition in comparison with compound 27 (human sEH): 13 fold

— PMC4172381 (Bioorganic & medicinal chemistry, 2014)
